This test in a line: APP processing: AlphaLisa assay of secreted Aβ40 and Aβ42 from SP4CT cells. Format: cell-based. The conditions noted are these: Homo sapiens, SH-SY5Y cells expressing amyloid β protein (SP4CT cells). The procedure, abridged: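 Secreted Aβ40 and Aβ42 were quantified separately by AlphaLisa luminescence, pairing streptavidin donor beads bearing biotinylated 4G8 with G210 or 12F4 acceptor beads. Samples were conditioned media from compound-treated SH-SY5Y cells expressing amyloid β protein (SP4CT).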

Setting [1] is: read-out: IC50, inhibition of production of Aβ40 peptide.
[2] abbreviates: read-out: IC50, inhibition of production of Aβ42 peptide.

pIC50: −log10 of the molar value. Where two headings read alike, the source gives them in different places. A value given as a limit tells only on which side of the number the result lay.

10 compounds from patent US8871796B2, “Diaryl ether derivatives as notch sparing gamma secretase inhibitors” (Merck Sharp & Dohme Corp., priority 2009, dated 2014) can be followed below.

In the case of `CCn1nc(-c2cccc(C(C)(C)NS(=O)(=O)CC(F)(F)F)c2)cc1Oc1ccc(C(C)(C)O)cc1` [Example 70, N-[1-(3-{1-ethyl-5-[4-(1-hydroxy-1-methylethyl)phenoxy]-1H-pyrazol-3-yl}phenyl)-1-methylethyl]-2,2,2-trifluoroethanesulfonamide], the pIC50 is over 6.70 under setting [1] and over 6.70 under setting [2].
For `O=S(=O)(CC(F)(F)F)NC1(c2cccc(-c3cc(Oc4ccc(C(F)(F)F)cc4)n(CC(F)(F)F)n3)c2)CC1` [Example 107, 2,2,2-trifluoro-N-[1-(3-{1-(2,2,2-trifluoroethyl)-5-[4-(trifluoromethyl)phenoxy]-1H-pyrazol-3-yl}phenyl)cyclopropyl]ethanesulfonamide], the pIC50 runs as follows: under setting [1], over 6.70; under setting [2], over 6.70.
For the compound `CCn1nc(-c2cccc(C(C)(C)NS(=O)(=O)CC(F)(F)F)c2)cc1Oc1ccc(C=O)cc1` [Example 61, N-(1-{3-[1-ethyl-5-(4-formylphenoxy)-1H-pyrazol-3-yl]phenyl}-1-methylethyl)-2,2,2-trifluoroethanesulfonamide], the pIC50 under setting [1] was over 6.70 and the negative logarithm of the IC50 (pIC50) under setting [2] is over 6.70.
As for `CCn1nc(-c2cccc(C3(NS(=O)(=O)CC4CCC4)CC3)c2)cc1Oc1ccc(C(F)(F)F)cn1` [Example 42, 1-cyclobutyl-N-{1-[3-(1-ethyl-5-{[5-(trifluoromethyl)pyridin-2-yl]oxy}-1H-pyrazol-3-yl)phenyl]cyclopropyl} methanesulfonamide], the pIC50 reads like this: under setting [1], over 6.70; under setting [2], over 6.70.
On to `CCn1nc(-c2cccc(C(C)(C)NS(=O)(=O)N(C)C)c2)cc1Oc1ccc(C(F)(F)F)cc1` [Example 14, N′-[1-(3-{1-ethyl-5-[4-(trifluoromethyl)phenoxy]-1H-pyrazol-3-yl}phenyl)-1-methylethyl]-N,N-dimethylsulfamide], for which the negative-log IC50 (pIC50) was over 6.70 under setting [1] and over 6.70 under setting [2].
With `CCn1nc(-c2cccc(C(C)(C)NS(=O)(=O)N3CCCC3)c2)cc1Oc1ccc(C(F)(F)F)cc1` [Example 11, N-[1-(3-{1-ethyl-5-[4-(trifluoromethyl)phenoxy]-1H-pyrazol-3-yl}phenyl)-1-methylethyl]pyrrolidine-1-sulfonamide], the pIC50 reads like this: under setting [1], over 6.70; under setting [2], over 6.70.
As for `CCn1nc(-c2cccc(C3(NS(=O)(=O)CC)CC3)c2)cc1Oc1ccc(C(F)(F)F)cc1` [Example 38, N-[1-(3-{1-ethyl-5-[4-(trifluoromethyl)phenoxy]-1H-pyrazol-3-yl}phenyl)cyclopropyl] ethanesulfonamide], the pIC50 is, setting by setting: under setting [1], over 6.70; under setting [2], over 6.70.
Take `Cc1nnc(Cn2nc(-c3cccc(C4(NS(=O)(=O)CC(F)(F)F)COC4)c3)cc2Oc2ccc(C(F)(F)F)cc2)o1` [Example 136, N-(3-{3-[5-(4-trifluoromethylphenoxy)-1-(5-methyl-1,3,4-oxadiazol-2-ylmethyl)-1H-pyrazol-3-yl]phenyl}oxetan-3-yl)-2,2,2-trifluoroethanesulfonamide]: the pIC50 was over 6.70 under setting [1] and over 6.70 under setting [2].
Take `CCn1nc(Oc2ccc(C(F)(F)F)cc2)cc1-c1cccc(C2(NS(=O)(=O)NC)CC2)c1` [Example 34, N-[1-(3-{1-ethyl-3-[4-(trifluoromethyl)phenoxy]-1H-pyrazol-5-yl}phenyl)cyclopropyl]-N′-methylsulfamide]: the pIC50 is over 6.70 under setting [1] and over 6.70 under setting [2].
As for `COCCn1nc(-c2cccc(C3(NS(=O)(=O)CC(F)(F)F)COC3)c2)cc1Oc1ccc(C(F)(F)F)cc1` [Example 141, N-(3-{3-[5-(4-trifluoromethylphenoxy)-1-(2-methoxyethyl)-1H-pyrazol-2-yl]phenyl}oxetan-3-yl)-2,2,2-trifluoroethanesulfonamide], the pIC50 was over 6.70 under setting [1] and over 6.70 under setting [2].
